In patent publication US8957108B2, “Use of 5,6-dimethylxanthenone-4-acetic acid as an antiviral agent” (University of Maryland, Baltimore, priority 2006, dated 2015):
In brackets after ≈: the same amount, converted by molar mass.

Experiments:
[1] = tested on: murine colon tumors; conditions: mouse; cited from earlier work
[2] = tested on: vesicular stomatitis virus (VSV); format: cell-based, strain Indiana; conditions: RAW 264.7 macrophages pretreated 6 h with 100 μg/ml; highest exposure MOI=10.0
[3] = tested on: Influenza/A/Wuhan; test: Assay of indirect inhibition of viral infection (influenza, MDCK cells, CPE); conditions: CPE of influenza virus on MDCK cells
[4] = tested on: IκBα, NF-κB, p38, ERK, and JNK MAPK; test: IκBα, NF-κB and MAPK activation in macrophages; format: cell-based, mouse
[5] = tested on: macrophages; test: Expression of LPS-inducible early genes and IFN production in macrophages; format: cell-based, mouse
Source text: Because all of the cellular activities listed above can be performed by another ubiquitous yet structurally diverse compound, the lipopolysaccharide (LPS) of Gram-negative bacteria, the ability of DMXAA to modulate the expression of a subset of well-characterized LPS-inducible early genes in macrophages was studied in an effort to further elucidate the mechanism of DMXAA action. DMXAA's ability to induce IFN production by macrophages and to modulate the expression of the genes that encode transcription factors IRF-1, IRF-2, and ICSBP members of the interferon regulatory factor (IRF) gene family was also studied. […] These genes are: TNF-α, IL-1β, IP-10, Type 2 Tumor Necrosis Factor Receptor (TNFR-2), D3, and D8.

[6] = tested on: TBK1−/− MEFs; test: Quantitative real-time PCR in mouse embryonic fibroblasts; conditions: 2 h
[7] = tested on: IFN-β−/− macrophages
[8] = IFN-β-deficient cells, DMXAA 3 h vs unstimulated wild-type cells

SMILES: Cc1ccc2c(=O)c3cccc(CC(=O)O)c3oc2c1C [DMXAA, 5,6-dimethylxanthenone-4-acetic acid]
- potency in vivo against murine colon tumors relative to FAA [1]: 12 fold
- VSV infection and CPE [2]: completely prevents VSV infection and CPE
- IC50 indirect antiviral activity [3]: 2.0 µg/mL (≈ 7.08 µM)
- activation of p38, ERK, and JNK MAPK ([4]; C57BL/6 macrophages): no discernible effect
- NF-κB translocation / binding activity ([4]; RAW 264.7 macrophage-like cell line): little effect
- level of IκBα protein ([4]; primary macrophages): little effect
- TNF-α gene expression [5]: only low induction
- expression of the genes encoding IP-10, D8, and D3 [5]: up-regulated to levels similar to those observed upon LPS induction
- induction of TNFR-2 and IL-1β genes [5]: insignificant induction
- induction of Type 1 Interferons (IFNs) ([5]; mouse macrophages): extremely potent inducer
- RANTES mRNA in TBK1-deficient MEFs [6]: fail to express
- TNF-α mRNA in TBK1-deficient MEFs [6]: fail to express
- CYP1A2 Fold Change: IFNβ−/− [7]: 3.9 fold
- CYP1B1 Fold Change: IFNβ−/− [7]: 5.9 fold
- 2310043N10RIK Fold Change: IFNβ−/− [7, 8]: 2.2 fold
- 5830484A20RIK Fold Change: IFNβ−/− [7, 8]: 4.0 fold
- ABCB1 Fold Change: IFNβ−/− [7, 8]: 7.1 fold
- ABL1 Fold Change: IFNβ−/− [7, 8]: 1.5 fold
- ABLIM1 Fold Change: IFNβ−/− [7, 8]: 1.4 fold
- ACVR1B Fold Change: IFNβ−/− [7, 8]: 2.3 fold
- ADRB2 Fold Change: IFNβ−/− [7, 8]: 1.7 fold
- AFTIPHILIN Fold Change: IFNβ−/− [7, 8]: 1.2 fold
- AKAP12 Fold Change: IFNβ−/− [7, 8]: 1.5 fold
- AMPD3 Fold Change: IFNβ−/− [7, 8]: 2.7 fold
- AP2A2 Fold Change: IFNβ−/− [7, 8]: 8.8 fold
- APBB1IP Fold Change: IFNβ−/− [7, 8]: 1.8 fold
- APOBEC3F Fold Change: IFNβ−/− [7, 8]: 1.4 fold
- ARHGEF3 Fold Change: IFNβ−/− [7, 8]: 2.1 fold
- ARID3A Fold Change: IFNβ−/− [7, 8]: 2.5 fold
- ARL4C Fold Change: IFNβ−/− [7, 8]: 5.5 fold
- ASF1A Fold Change: IFNβ−/− [7, 8]: 2.1 fold
- ATRX Fold Change: IFNβ−/− [7, 8]: 2.6 fold
- B3GAT3 Fold Change: IFNβ−/− [7, 8]: 1.6 fold
- BACE1 Fold Change: IFNβ−/− [7, 8]: 3.7 fold
- BAMBI Fold Change: IFNβ−/− [7, 8]: 1.5 fold
- BCL2 Fold Change: IFNβ−/− [7, 8]: 1.4 fold
- BCL2L1 Fold Change: IFNβ−/− [7, 8]: 2.3 fold
- BHLHB2 Fold Change: IFNβ−/− [7, 8]: 1.3 fold
- BID Fold Change: IFNβ−/− [7, 8]: 2.9 fold
- C8ORF4 Fold Change: IFNβ−/− [7, 8]: 4.1 fold
- C9ORF26 Fold Change: IFNβ−/− [7, 8]: 4.4 fold
- CCL2 Fold Change: IFNβ−/− [7, 8]: 5.8 fold
- CCL3 Fold Change: IFNβ−/− [7, 8]: 1.4 fold
- CCL4 Fold Change: IFNβ−/− [7, 8]: 8.1 fold
- CCL5 Fold Change: IFNβ−/− [7, 8]: 3.7 fold
- CCL7 Fold Change: IFNβ−/− [7, 8]: 2.9 fold
- CCL13 Fold Change: IFNβ−/− [7, 8]: 5.8 fold
- CCND2 Fold Change: IFNβ−/− [7, 8]: 2.0 fold
- CCNE1 Fold Change: IFNβ−/− [7, 8]: 2.9 fold
- CCNF Fold Change: IFNβ−/− [7, 8]: 2.4 fold
- CCRN4L Fold Change: IFNβ−/− [7, 8]: 1.6 fold
- CD37 Fold Change: IFNβ−/− [7, 8]: 1.1 fold
- CD40 Fold Change: IFNβ−/− [7, 8]: 1.3 fold
- CD86 Fold Change: IFNβ−/− [7, 8]: 6.0 fold
- CD274 Fold Change: IFNβ−/− [7, 8]: 1.0 fold
- CDC6 Fold Change: IFNβ−/− [7, 8]: 3.2 fold
- CDC7 Fold Change: IFNβ−/− [7, 8]: 1.6 fold
- CDC37L1 Fold Change: IFNβ−/− [7, 8]: 2.2 fold
- CDKN1A Fold Change: IFNβ−/− [7, 8]: 1.1 fold
- CEBPB Fold Change: IFNβ−/− [7, 8]: 1.9 fold
- CITED2 Fold Change: IFNβ−/− [7, 8]: 1.5 fold
- CLCA1 Fold Change: IFNβ−/− [7, 8]: 1.9 fold
- CNR2 Fold Change: IFNβ−/− [7, 8]: 2.3 fold
- CREBBP Fold Change: IFNβ−/− [7, 8]: 6.3 fold
- CXCL10 Fold Change: IFNβ−/− [7, 8]: 21.2 fold
- DAXX Fold Change: IFNβ−/− [7, 8]: 1.6 fold
- DSCR1 Fold Change: IFNβ−/− [7, 8]: 2.7 fold
- FGD6 Fold Change: IFNβ−/− [7, 8]: 2.0 fold
- FGL2 Fold Change: IFNβ−/− [7, 8]: 3.6 fold
- GBP2 Fold Change: IFNβ−/− [7, 8]: 1.6 fold
- GBP4 Fold Change: IFNβ−/− [7, 8]: 4.6 fold
- GBP6 Fold Change: IFNβ−/− [7, 8]: 6.8 fold
- GYPC Fold Change: IFNβ−/− [7, 8]: 4.4 fold
- IFI16 Fold Change: IFNβ−/− [7, 8]: 2.7 fold
- IFI35 Fold Change: IFNβ−/− [7, 8]: 1.1 fold
- IFI203 Fold Change: IFNβ−/− [7, 8]: 3.4 fold
- IFI205 Fold Change: IFNβ−/− [7, 8]: 1.8 fold
- IFIH1 Fold Change: IFNβ−/− [7, 8]: 7.0 fold
- IFIT1 Fold Change: IFNβ−/− [7, 8]: 22.2 fold
- IFIT2 Fold Change: IFNβ−/− [7, 8]: 14.3 fold
- IFIT3 Fold Change: IFNβ−/− [7, 8]: 10.5 fold
- IFNA5 Fold Change: IFNβ−/− [7, 8]: 2.5 fold
- IFNA6 Fold Change: IFNβ−/− [7, 8]: 9.1 fold
- IFNB1 Fold Change: IFNβ−/− [7, 8]: 1.1 fold
- IFNG Fold Change: IFNβ−/− [7, 8]: 59.4 fold
- IGTP Fold Change: IFNβ−/− [7, 8]: 1.2 fold
- IIGP1 Fold Change: IFNβ−/− [7, 8]: 1.2 fold
- IL6 Fold Change: IFNβ−/− [7, 8]: 13.5 fold
- IL12B Fold Change: IFNβ−/− [7, 8]: 1.4 fold
- IL15 Fold Change: IFNβ−/− [7, 8]: 1.7 fold
- IL15RA Fold Change: IFNβ−/− [7, 8]: 3.3 fold
- IRF1 Fold Change: IFNβ−/− [7, 8]: 1.2 fold
- IRF2 Fold Change: IFNβ−/− [7, 8]: 1.2 fold
- IRGM Fold Change: IFNβ−/− [7, 8]: 2.3 fold
- ISG20 Fold Change: IFNβ−/− [7, 8]: 3.4 fold
- KATNA1 Fold Change: IFNβ−/− [7, 8]: 1.5 fold
- LGP2 Fold Change: IFNβ−/− [7, 8]: 2.7 fold
- LHX2 Fold Change: IFNβ−/− [7, 8]: 7.8 fold
- LOC129607 Fold Change: IFNβ−/− [7, 8]: 7.8 fold
- MAFK Fold Change: IFNβ−/− [7, 8]: 1.6 fold
- MARCH5 Fold Change: IFNβ−/− [7, 8]: 1.9 fold
- MOV10 Fold Change: IFNβ−/− [7, 8]: 1.2 fold
- MX1 Fold Change: IFNβ−/− [7, 8]: 9.3 fold
- MX2 Fold Change: IFNβ−/− [7, 8]: 1.1 fold
- NMI Fold Change: IFNβ−/− [7, 8]: 1.6 fold
- NP Fold Change: IFNβ−/− [7, 8]: 1.7 fold
- NT5C3 Fold Change: IFNβ−/− [7, 8]: 1.8 fold
- OAS1B Fold Change: IFNβ−/− [7, 8]: 2.1 fold
- OASL Fold Change: IFNβ−/− [7, 8]: 19.7 fold
- P4HA1 Fold Change: IFNβ−/− [7, 8]: 3.4 fold
- P8 Fold Change: IFNβ−/− [7, 8]: 1.3 fold
- PARP9 Fold Change: IFNβ−/− [7, 8]: 1.4 fold
- PELI1 Fold Change: IFNβ−/− [7, 8]: 4.3 fold
- PGF Fold Change: IFNβ−/− [7, 8]: 20.2 fold
- PLAU Fold Change: IFNβ−/− [7, 8]: 2.3 fold
- PPP1R15A Fold Change: IFNβ−/− [7, 8]: 1.6 fold
- PTX3 Fold Change: IFNβ−/− [7, 8]: 1.3 fold
- PVRL2 Fold Change: IFNβ−/− [7, 8]: 3.1 fold
- PVRL4 Fold Change: IFNβ−/− [7, 8]: 4.3 fold
- REL Fold Change: IFNβ−/− [7, 8]: 1.1 fold
- RGC32 Fold Change: IFNβ−/− [7, 8]: 3.0 fold
- RIPK2 Fold Change: IFNβ−/− [7, 8]: 1.3 fold
- RSAD2 Fold Change: IFNβ−/− [7, 8]: 7.8 fold
- SAP30 Fold Change: IFNβ−/− [7, 8]: 1.6 fold
- SAV1 Fold Change: IFNβ−/− [7, 8]: 2.6 fold
- SDC4 Fold Change: IFNβ−/− [7, 8]: 3.3 fold
- SECTM1 Fold Change: IFNβ−/− [7, 8]: 1.2 fold
- SLC7A2 Fold Change: IFNβ−/− [7, 8]: 1.8 fold
- SOAT1 Fold Change: IFNβ−/− [7, 8]: 1.9 fold
- SOCS1 Fold Change: IFNβ−/− [7, 8]: 3.4 fold
- STAT2 Fold Change: IFNβ−/− [7, 8]: 1.7 fold
- TGTP Fold Change: IFNβ−/− [7, 8]: 1.6 fold
- TLK2 Fold Change: IFNβ−/− [7, 8]: 1.4 fold
- TLR3 Fold Change: IFNβ−/− [7, 8]: 1.3 fold
- TMOD3 Fold Change: IFNβ−/− [7, 8]: 2.3 fold
- TNF Fold Change: IFNβ−/− [7, 8]: 1.4 fold
- TNFRSF11B Fold Change: IFNβ−/− [7, 8]: 100.0 fold
- TNFSF9 Fold Change: IFNβ−/− [7, 8]: 1.7 fold
- TOR1AIP1 Fold Change: IFNβ−/− [7, 8]: 1.3 fold
- TPST1 Fold Change: IFNβ−/− [7, 8]: 6.1 fold
- TREX1 Fold Change: IFNβ−/− [7, 8]: 5.2 fold
- TRIM21 Fold Change: IFNβ−/− [7, 8]: 2.6 fold
- TRIM25 Fold Change: IFNβ−/− [7, 8]: 2.3 fold
- TRIM34 Fold Change: IFNβ−/− [7, 8]: 1.9 fold
- USP18 Fold Change: IFNβ−/− [7, 8]: 1.0 fold
- VCAM1 Fold Change: IFNβ−/− [7, 8]: 1.6 fold
- ZBP1 Fold Change: IFNβ−/− [7, 8]: 4.2 fold
- ZNF313 Fold Change: IFNβ−/− [7, 8]: 1.5 fold
